Source: US8003812B2, “C10 cyclopentyl ester substituted taxanes” (priority 2004, dated 2011)
Where two headings read alike, the source gives them in different places.

Legend:
[1] = system: HCT 116 human colon carcinoma; test: In vitro cytotoxicity, cell colony formation assay, HCT116; assay type: cell-based
Description: (§1) The cells were incubated in a CO2 incubator at 37° C. for 5 h for attachment to the bottom of Petri dishes. The compound of the present invention was made up fresh in medium at ten times the final concentration, and then 0.3 mL of this stock solution was added to the 2.7 mL of medium in the dish. The cells were then incubated with drugs for 72 h at 37° C. At the end of incubation the drug-containing media were decanted, the dishes were rinsed with 4 mL of Hank's Balance Salt Solution (HBSS), 5 mL of fresh medium was added, and the dishes were returned to the incubator for colony formation. The cell colonies were counted using a colony counter after incubation for 7 days. Cell survival was calculated and the values of IC50 (the drug concentration producing 50% inhibition of colony formation) were determined for each tested compound.

[2] = system: VM46 (resistant variant of human colon carcinoma HCT 116); test: In vitro cytotoxicity, cell colony formation assay, VM46; assay type: cell-based
Description: as §1
Identical assessments were carried out using VM46 (resistant variant of human colon carcinoma HCT 116 obtained from Dr. Li-Xi, M.D, Ph.D., California Pacific Medical Center, CA).

Sprague-Dawley rats [3] = test: In vivo toxicity assessment in rats, intravenous; conditions: IV; for Rat tox score IV: summary score
Description: (§2) Toxicity was assessed in 250-300g Sprague-Dawley rats and three rats were used per dose group. Three dose groups of the test compound, (i.e., 3 mg/kg, 9 mg/kg and 12 mg/kg for intravenous administration; 15 mg/kg, 30 mg/kg and 40 mg/kg) and 1 control group constituted a study. Animals were observed and clinical chemistry data collected at days 4 and 10. Rats were euthanized on day 11 and the nerves were excised and fixed upon euthanization for further examination.
(§3) Each rat is scored as described below and a final toxicity score that incorporates all parameters is assigned. A dead rat is assigned a score of zero. Most of the parameters contribute a positive value towards a total possible score of 130. For body weight, white blood cell, and platelet decreases, recovery is considered. […] The total score is divided by 13 to put it on a scale from 0 to 10.

Sprague-Dawley rats [4] = test: In vivo toxicity assessment in rats, oral; design: species or system rat; conditions: for Rat tox score PO: summary score
Description: as §2, §3

[5] = system: human pancreatic tumor xenograft Panc-1; conditions: Panc-1, best score 10
Description: The tumor used for this study was maintained in athymic nude mice. A tumor fragment (1 mm^3) was implanted s.c. into the right flank of each test mouse. Tumors were monitored twice weekly and then daily as their volume approached 200-400 mm^3 with a mean of 250-300 mm^3. On Day 1 of the study, the animals were sorted into treatment groups with tumor sizes of 171.5-320.0 mm^3 and group mean tumor sizes of 212.6-216.0 mm^3. Tumor size, in mm^3, was calculated from the following formula:
[formula] where w=width and l=length in mm of the tumor. Tumor weight was estimated with the assumption that 1 mg is equivalent to 1 mm^3 of tumor volume. […] All treatments were administered orally, once on Day 1 (qd×1). […] In all groups, the dosing volume of 0.6 mL/20 g mouse was scaled to the body weight of each animal. Each animal was euthanized when its neoplasm reached the predetermined endpoint size (1200 mm^3). The time to endpoint (TTE) for each mouse was calculated by the following equation:
(§4) [formula] where TTE is expressed in days, endpoint volume is in mm^3, b is the intercept, and m is the slope of the line obtained by linear regression of a log-transformed tumor growth data set. The data set is comprised of the first observation that exceeded the study endpoint volume and the three consecutive observations that immediately preceded the attainment of the endpoint volume. […] Animals classified as TR (treatment-related) deaths or NTRM (non-treatment-related metastasis) deaths are assigned a TTE value equal to the day of death. Animals classified as NTR (non-treatment-related) deaths are excluded from TTE calculations. Treatment efficacy was determined from tumor growth delay (TGD), which is defined as the increase in the median TTE for a treatment group compared to the control group: TGD=T−C, expressed in days, or as a percentage of the median TTE of the control group:
[formula] where: • T=median TTE for a treatment group and • C=median TTE for control Group 1.
(§5) Treatment may cause partial regression (PR) or complete regression (CR) of the tumor in an animal. In a PR response, the tumor volume is 50% or less of its Day 1 volume for three consecutive measurements during the course of the study, and equal to or greater than 13.5 mm^3 for one or more of these three measurements. In a CR response, the tumor volume is less than 13.5 mm^3 for three consecutive measurements during the course of the study. An animal with a CR response at the termination of a study is additionally classified as a long-term tumor-free survivor (LTTFS).
With respect to toxicity, the animals were weighed daily on Days 1-5, then twice weekly until the completion of the study. The mice were examined frequently for overt signs of any adverse, drug-related side effects. Acceptable toxicity for the maximum tolerated dose (MTD) of a cancer drug in mice is defined by the NCl as a group mean body-weight (BW) loss of less than 20% during the test, and not more than one toxic death among ten treated animals. The log rank test was employed to analyze the significance of the difference between the TTE values of a drug-treated group and the vehicle-treated control group. The log rank test analyzes the data for all animals except the NTR deaths. The two-tailed statistical analyses were conducted at P=0.05. The group median tumor growth curves show the median tumor volume (MTV) as a function of time. When an animal exited the study due to tumor size or TR death, the final tumor volume recorded for the animal was included with the data used to calculate the median volume at subsequent time points.

[6] = system: HT29 (human colon carcinoma) xenograft; conditions: HT29, best score 10
Description: Score=10*(TWd1−TWdn)/TWd1, where
TWd1=tumor weight on day 1
(§6) TWDn=lowest tumor weight on day 10 or later
(§7) Thus the best score for complete regression would be 10.

[7] = system: human pancreatic tumor xenograft Panc-1; conditions: single dose IV
Description: as §4, §5
With respect to toxicity, the animals were weighed daily on Days 1-5, then twice weekly until the completion of the study. The mice were examined frequently for overt signs of any adverse, drug-related side effects. […] The log rank test was employed to analyze the significance of the difference between the TTE values of a drug-treated group and the vehicle-treated control group. The log rank test analyzes the data for all animals except the NTR deaths. The two-tailed statistical analyses were conducted at P=0.05. The group median tumor growth curves show the median tumor volume (MTV) as a function of time. When an animal exited the study due to tumor size or TR death, the final tumor volume recorded for the animal was included with the data used to calculate the median volume at subsequent time points. If more than one death occurred in a treatment group, the tumor growth curve for that group was truncated at the time of the second death.
Human Panc-1 pancreatic carcinomas were maintained in athymic nude mice. A tumor fragment (1 mm^3) was implanted s.c. into the right flank of each test mouse. Tumors were monitored twice weekly and then daily as their size approached 200-400 mm^3 with a mean of 250-300 mm^3. On Day 1 of the study, the animals were sorted into groups of six mice, with tumor sizes of 171.5-486.0 mm^3 and group mean tumor sizes of 269.7-275.0 mm^3. Mice were sorted into groups containing six mice each, and treated according to the protocol in Tables 2A and 2B. All treatments were administered intravenously. Control Group 1 mice received the ethanol 5% and Liposyn II 95% vehicle, once on Day 1 (qd×1). […] Dosing volumes were 0.5 ml/20 g body weight for qd×1 dosing regimens and 0.3 mL/20 g body weight for the qod×5 or q4d×4 dosing schedules. Dosing volumes were scaled to the body weight of each animal. The vehicle was given to Group 1 mice in a single dose on Day 1 (qd×1).

[8] = system: HT29 (human colon carcinoma) xenograft; conditions: single dose IV
Description: Score=10*(TWd1−TWdn)/TWd1, where
TWd1=tumor weight on day 1
as §6, §7

[9] = system: DLD-1 (resistant human colon carcinoma); test: In vitro cytotoxicity, MTT assay, DLD-1; assay type: cell-based
[10] = Homo sapiens, HCT-116, 72 h drug incubation

Row | SMILES | IC50 ([1]; 72 h drug incubation) [nM] | IC50 ([2]; 72 h drug incubation) [nM] | Rat tox score IV (Sprague-Dawley rats [3]; scale 0 to 10) | Rat tox score PO (Sprague-Dawley rats [4]; scale 0 to 10) | other results
1 | CC(=O)OC12COC1CC(O)C1(C)C(=O)C(OC(=O)C3CC3)C3=C(C)C(OC(=O)C(O)C(NC(=O)OC(C)(C)C)c4ccco4)CC(O)(C(OC(=O)c4ccccc4)C21)C3(C)C (stereo not drawn) [Compound 0843, reference compound] | 0.24 | 0.86 | 0 | 0 | –
2 | CC(=O)OC12COC1CC(O)C1(C)C(=O)C(OC(=O)C3CC3)C3=C(C)C(OC(=O)C(O)C(NC(=O)OC(C)(C)C)c4cccs4)CC(O)(C(OC(=O)c4ccccc4)C21)C3(C)C (stereo not drawn) [Compound 0854, reference compound] | 0.05 | 0.09 | 1 | 0 | –
3 | CC(=O)OC12COC1CC(O)C1(C)C(=O)C(OC(=O)C3CC3)C3=C(C)C(OC(=O)C(O)C(NC(=O)OC(C)(C)C)c4ccoc4)CC(O)(C(OC(=O)c4ccccc4)C21)C3(C)C (stereo not drawn) [Compound 2781, reference compound] | 0.18 | 1.91 | 1 | 0 | –
4 | CC(=O)OC12COC1CC(O)C1(C)C(=O)C(OC(=O)C3CC3)C3=C(C)C(OC(=O)C(O)C(NC(=O)OC(C)(C)C)c4ccsc4)CC(O)(C(OC(=O)c4ccccc4)C21)C3(C)C (stereo not drawn) [Compound 2794] | 0.28 | 2.03 | – | – | –
5 | CC(=O)OC12COC1CC(O)C1(C)C(=O)C(OC(=O)C3CC3)C3=C(C)C(OC(=O)C(O)C(NC(=O)OC(C)(C)C)c4ccccn4)CC(O)(C(OC(=O)c4ccccc4)C21)C3(C)C (stereo not drawn) [Compound 2802] | 0.3 | 3.32 | – | – | –
6 | CC(=O)OC12COC1CC(O)C1(C)C(=O)C(OC(=O)C3CC3)C3=C(C)C(OC(=O)C(O)C(NC(=O)OC(C)(C)C)c4ccncc4)CC(O)(C(OC(=O)c4ccccc4)C21)C3(C)C (stereo not drawn) [Compound 2813] | 0.05 | 8.22 | – | – | –
7 | CC(=O)OC12COC1CC(O)C1(C)C(=O)C(OC(=O)C3CC3)C3=C(C)C(OC(=O)C(O)C(NC(=O)OC(C)C)c4cccs4)CC(O)(C(OC(=O)c4ccccc4)C21)C3(C)C (stereo not drawn) [Compound 3071, reference compound] | 0.17 | 1.51 | 5 | 4 | Tox Score, Dose 3 mg (Sprague-Dawley rats [3]; dose 3 mg, scale 0 to 10): 7.7; Tox Score, Dose 9 mg (Sprague-Dawley rats [3]; dose 9 mg, scale 0 to 10): 6; Tox Score, Dose 12 mg (Sprague-Dawley rats [3]; dose 12 mg, scale 0 to 10): 3.2; Tox Score, Weighted Avg (Sprague-Dawley rats [3]; Wt Avg = (Σ(dose × grp score))/24): 4.8; Tox Score, Average (Sprague-Dawley rats [3]; average of 3 dose groups): 5.6; Tox Score, Dose 15 mg (Sprague-Dawley rats [4]; Oral, dose 15 mg, scale 0 to 10): 6.2; Tox Score, Dose 30 mg (Sprague-Dawley rats [4]; Oral, dose 30 mg, scale 0 to 10): 5.1; Tox Score, Dose 40 mg (Sprague-Dawley rats [4]; Oral, dose 40 mg, scale 0 to 10): 1.5; Tox Score, Average (Sprague-Dawley rats [4]; Oral, average of 3 dose groups): 4.3; Tox Score, Weighted Avg (Sprague-Dawley rats [4]; Oral, weighted by dose): 3.6; Efficacy Score = 10*(TWd1−TWdn)/TWd1 ([5]; single dose oral 60 mg/kg): 5.8; Efficacy Score = 10*(TWd1−TWdn)/TWd1 ([5]; single dose oral 120 mg/kg): 7.3; Efficacy Score = 10*(TWd1−TWdn)/TWd1 ([6]; single dose oral 60 mg/kg): 6.3; Efficacy Score = 10*(TWd1−TWdn)/TWd1 ([6]; single dose oral 120 mg/kg): 7.5
8 | CC(=O)OC12COC1CC(O)C1(C)C(=O)C(OC(=O)C3CC3)C3=C(C)C(OC(=O)C(O)C(NC(=O)OCC(C)C)c4ccco4)CC(O)(C(OC(=O)c4ccccc4)C21)C3(C)C (stereo not drawn) [Compound 3102, reference compound] | 0.33 | 1.49 | 6 | 6 | Efficacy Score = 10*(TWd1−TWdn)/TWd1 ([7]; Dose 60, best score 10): 2.6; Efficacy Score = 10*(TWd1−TWdn)/TWd1 ([7]; Dose 120, best score 10): 5.3; Efficacy Score = 10*(TWd1−TWdn)/TWd1 ([8]; Dose 60, best score 10): 1.3; Efficacy Score = 10*(TWd1−TWdn)/TWd1 ([8]; Dose 120, best score 10): 5.3
9 | CC(=O)OC12COC1CC(O)C1(C)C(=O)C(OC(=O)C3CC3)C3=C(C)C(OC(=O)C(O)C(NC(=O)OCC(C)C)c4cccs4)CC(O)(C(OC(=O)c4ccccc4)C21)C3(C)C (stereo not drawn) [Compound 3129] | 1.53 | 2.88 | – | – | –
10 | CCCC(=O)NC(c1cccs1)C(O)C(=O)OC1CC2(O)C(OC(=O)c3ccccc3)C3C4(OC(C)=O)COC4CC(O)C3(C)C(=O)C(OC(=O)C3CC3)C(=C1C)C2(C)C (stereo not drawn) [Compound 3132] | 0.37 | 5.33 | – | – | –
11 | CCOC(=O)NC(c1ccco1)C(O)C(=O)OC1CC2(O)C(OC(=O)c3ccccc3)C3C4(OC(C)=O)COC4CC(O)C3(C)C(=O)C(OC(=O)C3CC3)C(=C1C)C2(C)C (stereo not drawn) [Compound 3677] | 0.3 | 18.6 | – | – | –
12 | CC(=O)OC12COC1CC(O)C1(C)C(=O)C(OC(=O)C3CC3)C3=C(C)C(OC(=O)C(O)C(NC(=O)OC(C)C)c4ccco4)CC(O)(C(OC(=O)c4ccccc4)C21)C3(C)C (stereo not drawn) [Compound 3853, reference compound] | 0.08 | 0.99 | 1 | 1 | –
13 | CCOC(=O)NC(c1cccs1)C(O)C(=O)OC1CC2(O)C(OC(=O)c3ccccc3)C3C4(OC(C)=O)COC4CC(O)C3(C)C(=O)C(OC(=O)C3CC3)C(=C1C)C2(C)C (stereo not drawn) [Compound 4051] | 0.3 | 1.62 | – | 5 | –
14 | CCCC(=O)NC(c1ccco1)C(O)C(=O)OC1CC2(O)C(OC(=O)c3ccccc3)C3C4(OC(C)=O)COC4CC(O)C3(C)C(=O)C(OC(=O)C3CC3)C(=C1C)C2(C)C (stereo not drawn) [Compound 4062] | 0.59 | 7.64 | – | – | –
15 | CC(=O)OC12COC1CC(O)C1(C)C(=O)C(OC(=O)C3CC3)C3=C(C)C(OC(=O)C(O)C(NC(=O)OCC(C)C)c4ccoc4)CC(O)(C(OC(=O)c4ccccc4)C21)C3(C)C (stereo not drawn) [Compound 4665] | 2.13 | 28.4 | – | – | –
16 | CC(=O)OC12COC1CC(O)C1(C)C(=O)C(OC(=O)C3CC3)C3=C(C)C(OC(=O)C(O)C(NC(=O)OCC(C)C)c4ccsc4)CC(O)(C(OC(=O)c4ccccc4)C21)C3(C)C (stereo not drawn) [Compound 5011] | 2.99 | 8.47 | – | – | –
17 | CC(=O)O[C@@]12CO[C@@H]1C[C@H](O)[C@@]1(C)C(=O)[C@H](O)C3=C(C)[C@@H](OC(=O)[C@H](O)[C@@H](NC(=O)OC(C)(C)C)c4ccccc4)C[C@@](O)([C@@H](OC(=O)c4ccccc4)[C@H]21)C3(C)C [docetaxel] | 0.6 | 6.7 | – | – | IC50 [9]: 9.1 nM
18 | CC(=O)O[C@H]1C(=O)[C@@]2(C)[C@H]([C@H](OC(=O)c3ccccc3)[C@]3(O)C[C@H](OC(=O)[C@H](O)[C@@H](NC(=O)c4ccccc4)c4ccccc4)C(C)=C1C3(C)C)[C@]1(OC(C)=O)CO[C@@H]1C[C@@H]2O [paclitaxel] | – | – | – | – | IC50 [1, 10]: 2.1 nM; IC50 [2, 10]: 20 nM; IC50 ([9]; Homo sapiens, DLD-1): 10.1 nM
